Measurements as given in patent US11883537B2, “Sustained release solid dosage forms for modulating the colonic microbiome” (Axial Therapeutics, Inc., priority 2019, dated 2024).
Read-outs that look alike come from different tables or passages of the source.

Legend:
α-synuclein = α-synuclein (Homo sapiens, UniProt P37840); assay: ThT assay, aggregation of α-synuclein; type: biochemical
Source text: (§1) A compound that inhibits, or that may inhibit, amyloidogenesis is combined with a bacterial amyloid initiator (e.g., E. coli CsgA), or a host-derived amyloidogenic protein (e.g., α-synuclein) and an amyloid precursor in the presence of Thioflavin T (ThT). Separately, as a control, bacterial amyloid initiator, amyloid precursor, and Thioflavin T are combined in the absence of the suspected amyloidogenesis inhibitor. Thioflavin T fluorescence is monitored over time. […] The Tht assay was used with a cell-free assay to assess the effects of compounds on aggregation of α-synuclein of E. coli CsgA, and to assess the effects of compounds on aggregation of α-synuclein seeded by E. coli CsgA.

[1] = molecular target: α-synuclein seeded by E. coli CsgA (Homo sapiens, UniProt P37840); type: biochemical; conditions: ThT fluorescence, cell-free
Source text: as §1

E. coli CsgA = E. coli CsgA (Escherichia coli, UniProt P28307); assay: ThT assay, aggregation of E. coli CsgA; type: biochemical; conditions: ThT fluorescence, cell-free
Source text: A compound that inhibits, or that may inhibit, amyloidogenesis is combined with a bacterial amyloid initiator (e.g., E. coli CsgA), or a host-derived amyloidogenic protein (e.g., α-synuclein) and an amyloid precursor in the presence of Thioflavin T (ThT). Separately, as a control, bacterial amyloid initiator, amyloid precursor, and Thioflavin T are combined in the absence of the suspected amyloidogenesis inhibitor. Thioflavin T fluorescence is monitored over time. A reduction in the rate of increase in Thioflavin T fluorescence, and/or a reduction in the maximum level of Thioflavin T fluorescence in the sample containing the suspected inhibitor, relative to the control sample, confirms that the suspected amyloidogenesis inhibitor is in fact functioning to inhibit amyloid formation. The Tht assay was used with a cell-free assay to assess the effects of compounds on aggregation of α-synuclein of E. coli CsgA, and to assess the effects of compounds on aggregation of α-synuclein seeded by E. coli CsgA. For a detailed description of the ThT assay, see, e.g., International Publication No. WO/2018/213204, which is incorporated by reference herein in its entirety.

[2] = tested on: bacterial curli levels in the gastrointestinal tract; assay: Murine models, curli content in feces; type: in vivo; conditions: SPF mice or germ free mice mono-colonized with E. coli MC4100; oral
Method: The following two mouse models were used to evaluate the in vivo activity of test articles (i.e., sustained release solid dosage forms described herein).
Model 1 was performed in selected strains of specific pathogen free (SPF) mice (e.g. Swiss Webster) that carry curli producing bacteria as part of their native gastrointestinal microbiota.
Model 2 was performed in germ free mice that have no native microbiota. In these mice administration, by oral gavage, of a single strain of curli-producing bacteria (e.g. E. coli MC4100) led to stable bacterial colonization of their gastrointestinal tract. […]
To evaluate the ability of test articles to modify bacterial curli levels in the gastrointestinal tract mice, from either Model 1 or 2, were treated with compound typically administered once daily via oral gavage. […] Where appropriate, test articles were evaluated at multiple dose levels, or at greater or lower dosing frequency. […]
To enable the quantitative assessment of test article impact on gastrointestinal curli levels, fecal samples were collected from these treated mice. […]
Assessment of curli content in feces was achieved through one of four approaches: • 1. Quantitative measurement of messenger RNA (mRNA) levels for csgA using a specific qRT-PCR approach. • 2. Quantitative measurement of curli protein levels using fluorescent dyes that bind to amyloid proteins (e.g. ThT, Congo Red, FSB). • 3. […]

αSyn amyloid formation = conditions: mice; cited from earlier work

E. coli CsgA, sequence (P28307 21-151): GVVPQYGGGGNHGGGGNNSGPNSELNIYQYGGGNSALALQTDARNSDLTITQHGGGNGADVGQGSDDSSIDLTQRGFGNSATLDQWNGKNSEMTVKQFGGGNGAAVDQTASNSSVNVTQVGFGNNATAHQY

Compound | Inhibition of Aggregation αSyn (α-synuclein; ThT fluorescence, cell-free) | Inhibition of Aggregation CsgA-seeded αSyn [1] | Inhibition of Aggregation CsgA (E. coli CsgA) | Inhibition of Aggregation αSyn (α-synuclein) | in vivo activity on fecal curli content [2] | motor scores (αSyn amyloid formation) | αSyn amyloid formation in vivo (αSyn amyloid formation)
COc1cc(/C=C/C(=O)/C=C(O)/C=C/c2ccc(O)c(OC)c2)ccc1O [curcumin] | +++ ((+++) is greater than 60% inhibition) | +++ ((+++) is greater than 60% inhibition) | – | – | – | – | –
Cc1ccc(C(C)C)cc1O [carvacrol] | − ((−) is between −10% to 10% inhibition) | − ((−) is between −10% to 10% inhibition) | − − ((− −) is less than −10% inhibition) | – | – | – | –
O=C(/C=C/c1ccc(O)c(O)c1)O[C@H](Cc1ccc(O)c(O)c1)C(=O)O [rosmarinic acid] | +++ ((+++) is greater than 60% inhibition) | – | ++ ((++) is between 30% to 60% inhibition) | – | – | – | –
CC(Cc1ccc(O)c(O)c1)C(C)Cc1ccc(O)c(O)c1 (centres unmarked) [NDGA] | ++ ((++) is between 30% to 60% inhibition) | ++ ((++) is between 30% to 60% inhibition) | + ((+) is between 10% to 30% inhibition) | – | – | – | –
O=c1cc(-c2ccc(O)cc2)oc2cc(O)cc(O)c12 [apigenin] | ++ ((++) is between 30% to 60% inhibition) | – | – | – | – | – | –
C=CCc1ccc(OC)c(OC)c1 [4-allyl-1,2-dimethoxy-benzene, 4-allyl-1,2-dimethoxy-benzene] | – | ++ ((++) is between 30% to 60% inhibition) | − − ((− −) is less than −10% inhibition) | − ((−) is between −10% to 10% inhibition) | – | – | –
COc1cc(O)ccc1O [methoxy- hydroquinone, methoxy-hydroquinone] | +++ ((+++) is greater than 60% inhibition) | +++ ((+++) is greater than 60% inhibition) | ++ ((++) is between 30% to 60% inhibition) | – | – | – | –
C/C=C/c1ccc(O)c(OC)c1 [isoeugenol] | − ((−) is between −10% to 10% inhibition) | ++ ((++) is between 30% to 60% inhibition) | − ((−) is between −10% to 10% inhibition) | – | – | – | –
Oc1ccc(/C=C/c2cc(O)cc(O)c2)cc1 [resveratrol] | +++ ((+++) is greater than 60% inhibition) | – | +++ ((+++) is greater than 60% inhibition) | – | – | – | –
Brc1cccc(-c2cc(-c3ccc4c(c3)OCO4)n[nH]2)c1 [Anle 138b] | – | – | − ((−) is between −10% to 10% inhibition) | – | – | – | –
O=c1c(O)c(-c2ccc(O)cc2O)oc2cc(O)cc(O)c12 [morin] | +++ ((+++) is greater than 60% inhibition) | +++ ((+++) is greater than 60% inhibition) | +++ ((+++) is greater than 60% inhibition) | – | – | – | –
O=c1c(-c2ccc(O)cc2)coc2cc(O)cc(O)c12 [genistein] | ++ ((++) is between 30% to 60% inhibition) | – | – | – | – | – | –
O=c1c(O)c(-c2ccc(O)c(O)c2)oc2cc(O)cc(O)c12 [quercetin] | +++ ((+++) is greater than 60% inhibition) | – | ++ ((++) is between 30% to 60% inhibition) | – | – | – | –
C=CCc1ccc(O)c(OC)c1 [eugenol] | − ((−) is between −10% to 10% inhibition) | ++ ((++) is between 30% to 60% inhibition) | − ((−) is between −10% to 10% inhibition) | – | – | – | –
O=C(O[C@@H]1Cc2c(O)cc(O)cc2O[C@@H]1c1cc(O)c(O)c(O)c1)c1cc(O)c(O)c(O)c1 [EGCG, epigallocatechin gallate] | +++ ((+++) is greater than 60% inhibition) | +++ ((+++) is greater than 60% inhibition) | ++ ((++) is between 30% to 60% inhibition) | – | reduce fecal levels of csgA mRNA, CsgA protein, and curli protein | improved motor scores | inhibits or reduces αSyn amyloid formation in mice
O=C(O)c1cc(O)c(O)c(O)c1 [gallic acid] | +++ ((+++) is greater than 60% inhibition) | +++ ((+++) is greater than 60% inhibition) | +++ ((+++) is greater than 60% inhibition) | – | – | – | –
O=C(CCc1ccc(O)cc1)c1c(O)cc(O)cc1O [phloretin] | ++ ((++) is between 30% to 60% inhibition) | + ((+) is between 10% to 30% inhibition) | + ((+) is between 10% to 30% inhibition) | – | – | – | –
CCCCCCCCCCCCOC(=O)c1cc(O)c(O)c(O)c1 [lauryl gallate] | ++ ((++) is between 30% to 60% inhibition) | + ((+) is between 10% to 30% inhibition) | − ((−) is between −10% to 10% inhibition) | – | – | – | –
Cc1ccc(C(C)C)c(O)c1 [thymol] | − − ((− −) is less than −10% inhibition) | − ((−) is between −10% to 10% inhibition) | − ((−) is between −10% to 10% inhibition) | – | – | – | –
COc1ccccc1O [guaiacol] | − ((−) is between −10% to 10% inhibition) | ++ ((++) is between 30% to 60% inhibition) | − ((−) is between −10% to 10% inhibition) | – | – | – | –
